Experimental data reported in patent publication US20130225633A1, “PHENYL HETEROCYCLOALKYL GLUCOCORTICOID RECEPTOR MODULATORS” (Corcept Therapeutics, Inc., priority 2012, published 2013).

What was measured:
[1] = molecular target: T1, human recombinant glucocorticoid receptor (Homo sapiens, UniProt P04150); experiment: Glucocorticoid receptor binding displacement assay with 3H-dexamethasone (Example 22); details: Examples 1-15: 3H-dexamethasone displacement assay of Example 22; read-out: GR binding Ki
T1 construct: This GR was a full-length steroid hormone receptor; host or cells: baculovirus-infected insect cells
T1 sequence (P04150 1-777): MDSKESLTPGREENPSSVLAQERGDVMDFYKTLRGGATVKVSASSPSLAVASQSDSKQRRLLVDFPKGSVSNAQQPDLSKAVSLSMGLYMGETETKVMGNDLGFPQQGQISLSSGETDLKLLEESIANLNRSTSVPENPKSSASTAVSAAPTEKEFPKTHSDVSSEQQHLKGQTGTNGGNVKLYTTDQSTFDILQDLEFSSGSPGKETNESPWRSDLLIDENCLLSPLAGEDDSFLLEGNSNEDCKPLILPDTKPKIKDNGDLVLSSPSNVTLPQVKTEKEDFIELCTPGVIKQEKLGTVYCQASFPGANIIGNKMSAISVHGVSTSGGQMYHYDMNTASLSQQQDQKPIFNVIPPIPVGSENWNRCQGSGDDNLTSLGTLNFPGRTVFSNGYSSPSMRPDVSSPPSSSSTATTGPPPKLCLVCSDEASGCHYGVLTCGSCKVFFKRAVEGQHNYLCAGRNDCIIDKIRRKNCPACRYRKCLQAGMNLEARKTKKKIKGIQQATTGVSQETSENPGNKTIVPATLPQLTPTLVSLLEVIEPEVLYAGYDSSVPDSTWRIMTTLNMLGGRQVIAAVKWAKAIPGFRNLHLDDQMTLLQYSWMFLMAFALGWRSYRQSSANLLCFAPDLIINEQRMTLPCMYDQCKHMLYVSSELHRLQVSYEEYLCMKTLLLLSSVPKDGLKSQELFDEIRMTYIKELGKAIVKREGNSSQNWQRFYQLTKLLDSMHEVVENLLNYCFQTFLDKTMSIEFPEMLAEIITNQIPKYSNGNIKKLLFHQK
Procedure: Binding protocol: Compounds were tested in a binding displacement assay using human recombinant glucocorticoid receptor with ^3H-dexamethasone as the ligand. The source of the receptor was recombinant baculovirus-infected insect cells. This GR was a full-length steroid hormone receptor likely to be associated with heat-shock and other endogenous proteins.
For the IC50 determinations, test compounds were tested at 6 concentrations in duplicate. Test compounds were diluted from 10 mM stock in 100% DMSO. The tested solutions were prepared at 2× final assay concentration in 2% DMSO/assay buffer.
All reagents and the assay plate were kept on ice during the addition of reagents. The reagents were added to wells of a v-bottomed polypropylene plate in the following order: 25 μl of 10 nM 3H-dexamethasone solution, 50 μl of TB/NSB/compound solution and 25 μl of 2 nM GR solution. After the additions, the incubation mixture was mixed and incubated for 2.5 hrs at 4° C.
After 2.5 hrs incubation, unbound counts were removed with dextran coated charcoal (DCC) as follows: 15 μl of DCC solution (10% DCC in assay buffer) was added to all wells and mixed (total volume 115 μl). The plate was centrifuged at 4000 rpm for 10 minutes at 4° C. 75 μl of the supernatants was carefully pipetted into an optiplate. 150 μl of scintillation cocktail were added (Microscint-40, Perkin Elmer). The plate was vigorously shaken for approximately 10 minutes and counted on a Topcount.
The IC50 values were converted to Ki (the inhibition constant) using the Cheng-Prusoff equation.
Reagents: Assay buffer: 10 mM potassium phosphate buffer pH 7.6 containing 5 mM DTT, 10 mM sodium molybdate, 100 μM EDTA and 0.1% BSA.

[2] = molecular target: T2, glucocorticoid receptors (GR) in SW1353/MMTV-5 cells (Homo sapiens, UniProt P04150); experiment: GR reporter gene assay using SW1353/MMTV-5 cells (Example 24); assay type: cell-based
T2 construct: contains endogenous glucocorticoid receptors; endogenous in cells; host or cells: SW1353/MMTV-5 (human chondrosarcoma, stably transfected with pMAMneo-Luc reporter only)
T2 sequence (P04150 1-777): T1 sequence (P04150 1-777)
Procedure: SW1353/MMTV-5 is an adherent human chondrosarcoma cell line that contains endogenous glucocorticoid receptors. It was transfected with a plasmid (pMAMneo-Luc) encoding firefly luciferase located behind a glucocorticoid-responsive element (GRE) derived from a viral promoter (long terminal repeat of mouse mammary tumor virus). A stable cell line SW1353/MMTV-5 was selected with geneticin, which was required to maintain this plasmid.
SW1353/MMTV-5 cells were distributed in 96-well plates and incubated in medium (without geneticin) for 24 hrs.

SMILES | Ki [1] | Ki [2]
COC[C@]12Cc3cnn(-c4ccc(F)cc4)c3C=C1CCN(S(=O)(=O)c1cccc(N3CC[C@H](F)C3)c1)C2 [Example 5, (R)-1-(4-Fluorophenyl)-6-[3-((S)-3-fluoropyrrolidin-1-yl)-benzenesulfonyl]-4a-methoxymethyl-4,4a,5,6,7,8-hexahydro-1H-1,2,6-triaza-cyclopenta[b]naphthalene] | 0.5 to 1 nM | < 10 nM
COC(=O)[C@]12Cc3cnn(-c4ccc(F)cc4)c3C=C1CCN(S(=O)(=O)c1cccc(N3CC[C@@H](F)C3)c1)C2 [Example 12, (R)-1-(4-Fluoro-phenyl)-6-[3-((R)-3-fluoro-pyrrolidin-1-yl)-benzenesulfonyl]-1,4,5,6,7,8-hexahydro-1,2,6-triaza-cyclopenta[b]naphthalene-4a-carboxylic acid methyl ester] | ≥ 1 nM | > 20 nM
O=S(=O)(c1cccc(N2CC[C@@H](F)C2)c1)N1CCC2=Cc3c(cnn3-c3ccc(F)cc3)C[C@]2(COCC2CC2)C1 [Example 1, (R)-4a-Cyclopropylmethoxymethyl-1-(4-fluorophenyl)-6-[3-((R)-3-fluoropyrrolidin-1-yl)-benzenesulfonyl]-4,4a,5,6,7,8-hexahydro-1H-1,2,6-triaza-cyclopenta[b]naphthalene] | ≥ 1 nM | < 10 nM
CCOC(=O)[C@]12Cc3cnn(-c4ccc(F)cc4)c3C=C1CCN(S(=O)(=O)c1cccc(N3CC[C@@H](F)C3)c1)C2 [Example 11, (R)-1-(4-Fluoro-phenyl)-6-[3-((R)-3-fluoro-pyrrolidin-1-yl)-benzenesulfonyl]-1,4,5,6,7,8-hexahydro-1,2,6-triaza-cyclopenta[b]naphthalene-4a-carboxylic acid ethyl ester] | 0.5 to 1 nM | 10 to 20 nM
O=S(=O)(c1cccc(N2CC[C@H](F)C2)c1)N1CCC2=Cc3c(cnn3-c3ccc(F)cc3)C[C@]2(COCC2CC2)C1 [Example 2, (R)-4a-Cyclopropylmethoxymethyl-1-(4-fluorophenyl)-6-[3-((S)-3-fluoropyrrolidin-1-yl)-phenyl-3-sulfonyl]-4,4a,5,6,7,8-hexahydro-1H-1,2,6-triaza-cyclopenta[b]naphthalene] | 0.5 to 1 nM | < 10 nM
O=S(=O)(c1ccc(N2CC[C@@H](F)C2)cc1)N1CCC2=Cc3c(cnn3-c3ccc(F)cc3)C[C@]2(COCC2CC2)C1 [Example 7, (R)-4a-Cyclopropylmethoxymethyl-1-(4-fluoro-phenyl)-6-[4-((R)-3-fluoro-pyrrolidin-1-yl)-benzenesulfonyl]-4,4a,5,6,7,8-hexahydro-1H-1,2,6-triaza-cyclopenta[b]naphthalene] | < 0.5 nM | < 10 nM
O=S(=O)(c1ccc(N2CCCC2)cc1)N1CCC2=Cc3c(cnn3-c3ccc(F)cc3)C[C@]2(COCC2CC2)C1 [Example 8, (R)-4a-Cyclopropylmethoxymethyl-1-(4-fluoro-phenyl)-6-[4-(pyrrolidin-1-yl)-benzenesulfonyl]-4,4a,5,6,7,8-hexahydro-1H-1,2,6-triaza-cyclopenta[b]naphthalene] | ≥ 1 nM | < 10 nM
COC[C@]12Cc3cnn(-c4ccc(F)cc4)c3C=C1CCN(S(=O)(=O)c1ccc(N3CCCC3)cc1)C2 [Example 10, (R)-1-(4-Fluoro-phenyl)-6-[4-(pyrrolidin-1-yl)-benzenesulfonyl]-4a-methoxymethyl-4,4a,5,6,7,8-hexahydro-1H-1,2,6-triaza-cyclopenta[b]naphthalene] | 0.5 to 1 nM | > 20 nM
O=C(OCF)[C@]12Cc3cnn(-c4ccc(F)cc4)c3C=C1CCN(S(=O)(=O)c1cccc(N3CCCC3)c1)C2 [Example 15, (R)-1-(4-Fluoro-phenyl)-6-[3-(pyrrolidin-1-yl)-benzenesulfonyl]-1,4,5,6,7,8-hexahydro-1,2,6-triaza-cyclopenta[b]naphthalene-4a-carboxylic acid fluoromethyl ester] | 0.5 to 1 nM | > 20 nM
COC[C@]12Cc3cnn(-c4ccc(F)cc4)c3C=C1CCN(S(=O)(=O)c1ccc(N3CC[C@@H](F)C3)cc1)C2 [Example 9, (R)-1-(4-Fluoro-phenyl)-6-[4-((R)-3-fluoro-pyrrolidin-1-yl)-benzenesulfonyl]-4a-methoxymethyl-4,4a,5,6,7,8-hexahydro-1H-1,2,6-triaza-cyclopenta[b]naphthalene] | 0.5 to 1 nM | 10 to 20 nM
O=S(=O)(c1cccc(N2CCCC2)c1)N1CCC2=Cc3c(cnn3-c3ccc(F)cc3)C[C@]2(COCC2CC2)C1 [Example 3, (R)-4a-Cyclopropylmethoxymethyl-1-(4-fluorophenyl)-6-[3-(pyrrolidin-1-yl)-benzenesulfonyl]-4,4a,5,6,7,8-hexahydro-1H-1,2,6-triaza-cyclopenta[b]naphthalene] | ≥ 1 nM | < 10 nM
COC[C@]12Cc3cnn(-c4ccc(F)cc4)c3C=C1CCN(S(=O)(=O)c1cccc(N3CC[C@@H](F)C3)c1)C2 [Example 4, (R)-1-(4-Fluorophenyl)-6-[3-((R)-3-fluoropyrrolidin-1-yl)-benzenesulfonyl]-4a-methoxymethyl-4,4a,5,6,7,8-hexahydro-1H-1,2,6-triaza-cyclopenta[b]naphthalene] | ≥ 1 nM | 10 to 20 nM
COC[C@]12Cc3cnn(-c4ccc(F)cc4)c3C=C1CCN(S(=O)(=O)c1cccc(N3CCCC3)c1)C2 [Example 6, (R)-1-(4-Fluoro-phenyl)-4a-methoxymethyl-6-[3-(pyrrolidin-1-yl)-benzenesulfonyl)-4,4a,5,6,7,8-hexahydro-1H-1,2,6-triaza-cyclopenta[b]naphthalene] | 0.5 to 1 nM | 10 to 20 nM
O=C(OCF)[C@]12Cc3cnn(-c4ccc(F)cc4)c3C=C1CCN(S(=O)(=O)c1cccc(N3CC[C@@H](F)C3)c1)C2 [Example 13, (R)-1-(4-Fluoro-phenyl)-6-[3-((R)-3-fluoro-pyrrolidin-1-yl)-benzenesulfonyl]-1,4,5,6,7,8-hexahydro-1,2,6-triaza-cyclopenta[b]naphthalene-4a-carboxylic acid fluoromethyl ester] | 0.5 to 1 nM | > 20 nM
CCOC(=O)[C@]12Cc3cnn(-c4ccc(F)cc4)c3C=C1CCN(S(=O)(=O)c1cccc(N3CCCC3)c1)C2 [Example 14, (R)-1-(4-Fluoro-phenyl)-6-[3-(pyrrolidin-1-yl)-benzenesulfonyl]-1,4,5,6,7,8-hexahydro-1,2,6-triaza-cyclopenta[b]naphthalene-4a-carboxylic acid ethyl ester] | 0.5 to 1 nM | 10 to 20 nM
